Consider 13 compounds from patent publication US5001134A, “Piperidines, processes of preparation and medications containing them” (Lipha, Lyonnaise Industrielle Pharmaceutique, priority 1989, dated 1991).

For data set [1], the system named is isolated rat aorta. In words: Antagonism towards serotonin in vitro on the isolated rat aorta (serotonin-triggered contraction). To be noted: contraction by serotonin 20 μM, product added 10 min after serotonin, left 15 min, minimum of 3 aortas, read-out: Isolated rat aorta antiserotonin activity IC 50. Here is the method: The thoracic aorta is rapidly removed. A fragment of approximately 1 cm is cut into a spiral and then placed in a cell containing 20 ml of nutrient medium (Krebs-Henseleit) kept at 37° C. and oxygenated (95% O2, 5% CO2). The contraction is recorded using an isotonic strain gauge. After a rest of 45 min, supramaximal contractions are triggered by adding serotonin (20 μM) to the survival medium. A plateau is generally reached after 10 min of contact, the latter not exceeding 25 min. A rest of 30 min and numerous rinsings separate each contraction. The products are added 10 min after the serotonin and left for 15 min, at the end of which period the inhibition is measured. The inhibiting concentration 50 (IC 50) is determined for each compound being studied on a minimum of 3 aortas.
(§1) The results obtained by these two methods in the case of a few products of the invention and in the case of ketanserin (3-[2-[4-(4-fluorobenzoyl)-1-piperidinyl]ethyl]quinazolin-2,4-(1H,3H)-dione), taken as control, are listed in Table I.

Data set [2] deals with genetically hypertensive rat (SHR). In words: Antihypertensive activity in the genetically hypertensive rat (SHR), oral, arterial pressure measured 3 hours later. In kind it is in vivo. Particulars: SHR male rats, groups of 10, 3 hours after oral treatment, read-out: Antihypertensive activity (SHR) M.A.D. (minimum dose significantly reducing the mean arterial pressure). On the procedure:
The antihypertensive activity was investigated in the genetically hypertensive rat (SHR) whose arterial pressure was regularly monitored: hypertensive male rats having a particularly stable arterial pressure are grouped by 10 and treated orally with the compounds being studied Their arterial pressure is measured 3 hours later.
as §1

Data set [3] is described as follows: Toxicity, 50 lethal dose on the rat using the oral route. Particulars: in vivo. Here is the method:
By way of illustration, the 50 lethal dose determined on the rat using the oral route, in the case of the compound described in Example 1, is 1,700 mg/kg, that is 170 times the active dose in this species.

On to `CNC(=C[N+](=O)[O-])NCCN1CCC(C(=O)c2ccc(F)cc2)CC1` [Example 24, N-[2-[4-(4-Fluorobenzoyl)-1-piperidinyl]ethyl]-N'-methyl-2-nitro-1,1-ethenediamine], for which, in data set [1], the IC50 came to 2.9 µM. Besides, the minimal effective dose in data set [2] amounted to 10 mg/kg.

Regarding `CN=C(NC#N)NCCCN1CCC(C(=O)c2ccc(F)cc2)CC1` [Example 12, N-Cyano-N'-[3-[4-(4-fluorobenzoyl)-1-piperidinyl]propyl]-N"-methylguanidine], in data set [1], the IC50 worked out at 0.17 µM. Further, the minimal effective dose in data set [2] is 5 mg/kg.

As for `O=C(c1ccc(F)cc1)C1CCN(CCn2c(=O)[nH]c3ccccc3c2=O)CC1` [Ketanserin, 3-[2-[4-(4-fluorobenzoyl)-1-piperidinyl]ethyl]quinazolin-2,4-(1H,3H)-dione, reference compound], the IC50 in data set [1] was determined as 0.15 µM. Also, in data set [2], the minimal effective dose was 25 mg/kg.

Turning to `CN=C(NC#N)NCCCN1CCC(c2noc3cc(F)ccc23)CC1` [Example 19, N-Cyano-N'-[3-[4-(6-fluoro-1,2-benzisoxazol-3-yl)-1piperidinyl]propyl]-N"-methylguanidine], the IC50 in data set [1] stood at 0.05 µM. For the same compound, in data set [2], the minimal effective dose amounted to 0.5 mg/kg.

As to `CN=C(NC#N)NCCCCN1CCC(C(=O)c2ccc(F)cc2)CC1` [Example 14, N-Cyano-N'-[4-[4-(4-fluorobenzoyl)-1-piperidinyl]butyl]-N"-methylguanidine], the IC50 in data set [1] amounted to 0.67 µM. The minimal effective dose in data set [2] amounted to 10 mg/kg.

In the case of `CCNC(=NCCCN1CCC(c2noc3cc(F)ccc23)CC1)NC#N` [Example 20, N-Cyano-N'-ethyl-N"-[3-[4-(6-fluoro-1,2-benzisoxazol-3-yl)-1-piperidinyl]propyl]guanidine], in data set [1], the IC50 was 0.04 µM. In addition, the minimal effective dose in data set [2] is 0.5 mg/kg.

On to `CN=C(NC#N)NCCN1CCC(c2noc3cc(F)ccc23)CC1` [Example 18, N-Cyano-N'-[2-[4-(6-fluoro-1,2-benzisoxazol-3-yl)-1-piperidinyl]ethyl]-N"-methylguanidine], for which, in data set [1], the IC50 was found to be 0.09 µM. Also, in data set [2], the minimal effective dose turned out to be 2 mg/kg.

With `CN(C)C(=NCCCN1CCC(c2noc3cc(F)ccc23)CC1)NC#N` [Example 21, N'-Cyano-N,N-dimethyl-N"-[3-[4-(6-fluoro-1,2-benzisoxazol-3-yl)-1-piperidinyl]propyl]guanidine], in data set [1], the IC50 was 0.1 µM. In addition, the minimal effective dose in data set [2] amounted to 2 mg/kg.

With `CNC(=NC#N)NCCN1CCC(C(=O)c2ccc(F)cc2)CC1` [Example 1, N-Cyano-N'-[2-[4-(4-fluorobenzoyl)-1-piperidinyl]ethyl]-N"-methylguanidine], in data set [1], the IC50 came out at 0.53 µM. In data set [3] (oral route), this compound came in with an LD50 of 1700 mg/kg. In data set [3] (oral, LD50 / active dose, read-out: 50 lethal dose as multiple of the active dose in this species), the selectivity ratio is 170. For the same compound, in data set [2], the minimal effective dose is 10 mg/kg.

In the case of `CNC(=C[N+](=O)[O-])NCCN1CCC(c2noc3cc(F)ccc23)CC1` [Example 26, N-[2-[4-(6-Fluoro-1,2-benzisoxazol-3-yl)-1-piperidinyl]ethyl]-N'-methyl-2-nitro-1,1-ethenediamine], the IC50 in data set [1] stood at 0.38 µM. Further, the minimal effective dose in data set [2] turned out to be 5 mg/kg.

With `CN(C)C(=NC#N)NCCCN1CCC(C(=O)c2ccc(F)cc2)CC1` [Example 13], the IC50 in data set [1] was 1.95 µM. Besides, the minimal effective dose in data set [2] was 5 mg/kg.

Take `N#CNC(=N)NCCCN1CCC(c2noc3cc(F)ccc23)CC1` [Example 22, N-Cyano-N'-[3-[4-(6-fluoro-1,2-benzisoxazol-3-yl)-1-piperidinyl]propyl]guanidine]: in data set [1], the IC50 was found to be 0.02 µM. Besides, the minimal effective dose in data set [2] was determined as 5 mg/kg.

As for `CN(C)C(=NCCN1CCC(C(=O)c2ccc(F)cc2)CC1)NC#N` [Example 10, N'-Cyano-N,N-dimethyl-N"-[2-[4-(4-fluorobenzoyl)-1-piperidinyl]ethyl]guanidine], in data set [1], the IC50 amounted to 0.46 µM. Also, the minimal effective dose in data set [2] turned out to be 10 mg/kg.
